From patent publication US9074019B2, “Methods, systems, and compositions for calpain inhibition” (HENRY FORD HEALTH SYSTEMS, priority 2008, dated 2015)
Where “and” joins values, the source holds several entries; their conditions need not be identical. Equal entries are not always repeated. Entries after “also recorded” stand apart in the source; their conditions may differ. Each block holds one substance with its values, some of them ahead of it. Square brackets hold non-standard residues; d marks the D form. Ends that are not written are not given here. βAla = NCCC(=O)O

Legend:
[1] = tested on: cultured cells
[2] = tested on: calpain-mediated cleavage of αII-spectrin; assay: Western blot of αII-spectrin breakdown products (SBDPs) in rat brain following MCAO; format: in vivo, male Wistar rats
Procedure: Following MCAO and drug infusion, the animals were sacrificed after 24 or 48 h of survival. At that time, the brains were extracted and separated into right and left, cortical and subcortical regions, snap-frozen in liquid nitrogen and stored at −80° C. until used. For Western blot analysis, the brain samples were pulverized to a fine powder with a small mortar and pestle set over dry ice. The pulverized brain tissue powder was homogenized in a solution of 0.25 M sucrose, […] 2-(N-morpholino)-ethanesulfonic acid, 1 mM EDTA, pH 6.5, containing 0.025 mM E-64, 2.0 mM AEBSF, 0.5 mM PMSF, 0.02 mM leupeptin, 0.05 mM pepstatin, and 0.001 mM aprotinin (homogenization buffer) at 4° C. in a Potter-Elvehjem homogenizer. T homogenates were then centrifuged at 4° C. for 20 min at 16,000 g. Aliquots of the supernatant were stored at −80° C. until used for experiments. Protein concentrations were determined using micro BCA Protein Assay kit (Pierce, Rockford, Ill.). SDS-PAGE was carried out according to Laemmli and immunoblots were performed according to the technique of Towbin et al. Mouse monoclonal ant II-spectrin antibody (MAB 1622, 1:1,000) and horse radish peroxidase (HRP)-conjugated goat anti-mouse IgG (AP124P, 1:10,000) were from Chemicon (Temecula, Calif.). Labeled proteins were detected with the enhanced chemiluminescence method according to the manufacturer's instructions (GE Healthcare Biosciences, Piscataway, N.J., USA). Bands were quantified by densitometry using Gel-Doc 2000 (Bio-Rad, Richmond, Va.) and the free open source software ImageJ.
Pathologic activity of calpain and in vivo efficacy of SEQ ID NO: 5 were assessed by Western blot analysis of all-spectrin breakdown products (SBDPs) generated in the rat brain following MCAO. […] (E) Densitometric analysis of SBDP150/SBDP145 levels in ipsilateral cortex and subcortex at 24 and 48 h following MCAO.

[3] = tested on: focal cerebral ischemia (2 hour MCAO); assay: Neurological score after 2 hour MCAO in rats; format: in vivo, male Wistar rats; conditions: for Neurological Score 0 Day: score 0-3 (3 most severe), day 0; for Neurological Score 1 Day: day 1
Procedure: (§1) Based on our studies, we selected and further tested SEQ ID NO: 5 for its cerebroprotective capacity after 2 hour middle cerebral artery (“MCAO”) ischemia in the Two hour MCAO by the suture method was induced in 21 male Wistar rats. […] Animals survived 7 days and neurological testing (score 0-3, 3 being the most severe) was performed. After sacrifice the brain samples were formalin fixed and infarct volumes were calculated using standard computerized image analysis. Independent t-test was used for statistical analysis.
(§2) Following an institutionally approved animal care protocol, male Wistar rats (270-290 g) were obtained from Charles River Breeding Co. (Wilmington, Mass., USA). Two-hour middle cerebral artery occlusion (MCAO) by the intravascular suture method, drug infusion, measurement of infarct volume and neurological deficits were performed as detailed previously.
(§3) SEQ ID NO: 5 (50 μM solution, i.v. infusion at 15 μl/min for 4 h; 3 mg/kg), SEQ ID NO: 13 or vehicle (1% DMSO in saline) was administered to rats […] (n=6-9) immediately after reperfusion following 2 h of MCAO. Sham-operated animals had surgery but no MCA occlusion. Animals to be studied for neurological score and infarct volume survived 7 days.
Neurological scores have been previously defined as follows: no observable deficit=0, forelimb flexion=1, decreased resistance to lateral push with forelimb flexion=2, same behavior as 2 plus circling=3. […] However, the difference in performance between the SEQ ID NO: 5-treated animals and the vehicle controls (1.00±0.17 vs. 1.78±0.22, *P<0.05, n=9 per group; independent t-test) and the SEQ ID NO: 13-treated group (1.00±0.17 vs. 1.44±0.18, #P<0.05, n=9 per group; independent t-test) was statistically significant at day 7 post-injury.
We assessed functional outcome as an endpoint of our evaluation by the method of Bederson et al. Treatment with SEQ ID NO: 5 immediately after 2-h MCAO reduced neurological deficits by 24% and 44% on day 4 and day 7, respectively, compared to vehicle-treated stroke controls. Infarct volume was a secondary outcome and was measured at day 7 after stroke. The extent of cerebral infarction was reduced by 35% in the SEQ ID NO: 5-treated animals compared to vehicle-treated animals Due to the predictable location of areas of infarction and consistent production of neurological deficits in the MCAO model used in this study, the effects of SEQ ID NO: 5 on neurological outcome and size of infarction produced by focal cerebral ischemia could be reliably studied. It must be noted, however, that, infarction volumes could correlate poorly with functional outcome because small lesions in cortical locations can produce major functional deficits. Conversely, large lesions in relatively silent areas cause little detectable function loss. Reduction of neurological deficits after stroke has been attributed to synaptic and functional reorganization in the cerebral cortex and in subcortical structures after ischemic injuries.
(§4) Two-hour middle cerebral artery occlusion (MCAO) was used to induce ischemic stroke in Male Wistar rats. SEQ ID NO: 5 was given intravenously to rats immediately after reperfusion following 2 h of MCAO, while control animals had infusion of vehicle solution (n=6-9). Animals to be studied for neurological score and infarct volume survived 7 days, and neurological testing (mNSS and corner turn) were performed at 1, 4, and 7 days after MCAO. In another set of experiments, the animals were sacrificed at 48 h, and histology was performed for BBB integrity (albumin and fibrin leakage from the cerebral microvasculature into brain parenchyma). Phosphorylation of endothelial nitric oxide synthase (eNOS) was analyzed by Western blotting with specific antibodies raised against synthetic phosphorylated peptides representing known eNOS phosphorylation sites.

[4] = tested on: focal cerebral ischemia (2 hour MCAO); assay: Infarct volume after 2 hour middle cerebral artery occlusion (MCAO) in rats; format: in vivo, male Wistar rats; conditions: for infarct volume: 3 mg/kg i.v. 4 h, mean±SEM, no unit printed in this block, in %; for Lesion Volume % of Hemisphere (percent hemispheric infarct volume): 3 mg/kg i.v. infusion for 4 h after reperfusion, mean ± SE, n=9, 3 mg/kg
Description: (§5) We developed our peptidomimetic inhibitors of calpain by rational and systematic chemical modifications of the amide bond and/or side chain functionalities of permutations of SEQ ID NO: 2, followed by calpain-inhibitory kinetic measurements of the designed molecules in vitro as well as an assessment of their ability to improve neurological recovery in vivo after focal cerebral ischemic in rats. The structural modifications performed to create the peptidomimetics included, without limitation, amino acid replacements by chemical mutagenesis, amide bond mimics, methylene group insertion between the α-carbon and the carbonyl functionalities of individual amino acids, replacement of natural amino acid side chains with non-natural moieties, and amino acid side chain cyclizations. Calpain-inhibitory activity of the peptidomimetics was measured by steady-state and stopped-flow enzyme inhibition kinetic studies using purified calpain and natural protein or synthetic fluorogenic peptide substrates. The effect of the peptidomimetics on cerebral infarction, cerebral endothelial function and neurological functional recovery after ischemic stroke was assessed using a rat model of 2 hour middle cerebral artery (“MCAO”) ischemia.
as §1, §2, §3
From the H&E sections, the ischemic core area with diffuse pallor of the eosinophilic background and the border area with vacuolation or sponginess and neutrophils can be identified under the microscope. […] The subcortical region in the core slices of C and D is also affected (white arrows). The ischemic damage (i.e. cell death, loss of tissue, or encephalomalacia) is less in the SEQ ID NO: 5-treated animals compared to the vehicle-treated controls. By comparison, the contralateral side appeared undamaged by both gross inspection and in histological sections.

[5] = tested on: endothelial nitric oxide synthase (eNOS); assay: eNOS phosphorylation in brain after MCAO (Western blotting); format: in vivo, male Wistar rats
Procedure: as §4
C: Graphical representation of the ratio of upper:lower phospho-eNOS protein band intensities (n=6 rats/experimental group).

[6] = tested on: BBB integrity; assay: BBB integrity (albumin and fibrin leakage into brain parenchyma) after MCAO; format: in vivo, male Wistar rats
Procedure: as §4, with “sites. […] Shown are representative immunoblots of RSA levels in the ipsilateral cortical (A) and subcortical (B) regions of sham-operated, ischemic vehicle-treated, and ischemic. C, Densitometric analysis of RSA levels in ipsilateral cortex and subcortex (*p<0.05 vs vehicle; n=6) at 24 h following MCAO. […] Representative fluorescent micrographs of fibrin deposition outside the cerebral microvasculature of untreated (MCAO, panel A) and treated (+SEQ ID NO: 5, panel B) rats subjected to 2 hour MCA occlusion with reperfusion and 48 hour survival are shown. A schematic representation of a coronal brain section showing eight fields selected from the ischemic boundary zone (IBZ) for quantitative measurements of immunochemical staining for fibrin in the cortex and striatum is shown (panel C).” for “sites.”

[7] = tested on: purified calpain; assay: Calpain-inhibitory activity (steady-state and stopped-flow enzyme inhibition kinetics); format: biochemical; conditions: in words
Description: as §5, §3

[8] = rat 2-h MCAO, 3 mg/kg i.v. 4 h, mean ± SE, n=9
[9] = rat 2-h MCAO, 3 mg/kg i.v. 4 h, score 0-3, mean ± SE, n=9
[10] = rat 2-h MCAO, 3 mg/kg i.v. 4 h, score 0-3, mean ± SE, n=9, day 4

Substance: DPMSSTYIEELGKREVTIPPKYVALLPAVLLALLAP [SEQ ID NO: 5]
- toxicity to cultured cells [1]: non-toxic to cultured cells
- calpain-mediated cleavage of αII-spectrin in rat brain following MCAO ([2]; FIG. 4, 24 h and 48 h): blocks calpain-mediated cleavage of αII-spectrin
- SBDP145 levels at 48 h post-injury ([2]; cortical and subcortical regions, 48 h after MCAO, P<0.05 vs. vehicle, n=6): significantly reduced SBDP145 levels
- SBDP150 and SBDP145 formation at 24 h post-injury ([2]; ipsilateral cortex and subcortex, 24 h after MCAO): blocked SBDP150 and SBDP145 formation to basal levels; also recorded: completely blocked SBDP145 accumulation
- improving neurological recovery ([3]; 50 micromolar solution via femoral vein for 4 hours after reperfusion, total dose 3 mg/kg): effective
- Neurological Score 0 Day [3, 8]: 2.89 ± 0.11
- Neurological Score 1 Day [3, 9]: 2.33 ± 0.24
- Neurological Score 4 Days [3, 10]: 1.44 ± 0.18
- reduction of neurological deficits compared to vehicle-treated stroke controls, day 4 ([3]; rat 2-h MCAO, treatment immediately after MCAO, day 4): 24%
- reduction of neurological deficits compared to vehicle-treated stroke controls, day 7 ([3]; rat 2-h MCAO, treatment immediately after MCAO, day 7): 44%
- ischemic damage (cell death, loss of tissue, encephalomalacia) in H&E sections ([4]; FIG. 3, compared to vehicle-treated controls): less
- infarct volume ([4]; rat 2-h MCAO, day 7): 24.9±3.8
- Lesion Volume % of Hemisphere (percent hemispheric infarct volume) ([4]; rat 2-h MCAO, day 7): 24.9±3.8 % of Hemisphere and 24.9 ± 3.8*^,# % of Hemisphere
- reduction of infarct volume (extent of cerebral infarction) compared to vehicle-treated animals ([4]; rat 2-h MCAO, day 7): 35%
- eNOS phosphorylation state (eNOS-Ser633, ratio of upper:lower band) ([5]; FIG. 7, n=6 rats/group): modulates eNOS phosphorylation state
- eNOS threonine-495 phosphorylation in the brain after stroke ([5]; post-injury treatment, FIG. 8): significantly reduced; also recorded: induces eNOS-Thr495 dephosphorylation
- BBB integrity as assessed by albumin and fibrin extravasation ([6]; 48 h, compared to controls): significant improvement
- rat serum albumin (RSA) leakage into the ischemic brain parenchyma ([6]; FIG. 5, ipsilateral cortex and subcortex, 24 h following MCAO, p<0.05 vs vehicle, n=6): reduces rat serum albumin (RSA) leakage
- fibrin deposition outside the cerebral microvasculature ([6]; FIG. 6, 2 hour MCA occlusion with reperfusion and 48 hour survival): decreases fibrin deposition outside the cerebral microvasculature
- calpain inhibitory activity [7]: potent
- specificity for calpain [7]: specific inhibitor of calpain

- calpain inhibitory activity [7]: less active
- calpain inhibitory activity ([7]; listed as SEQ ID NO: 5-βAla): inactive
Substance: DPMSSTYIEE[βAla]GKREVTIPPKYVALLPAVLLALLAP [SEQ ID NO: 13, reference compound]
- Neurological Score 0 Day [3, 8]: 2.89 ± 0.11
- Neurological Score 1 Day [3, 9]: 2.11 ± 0.20
- Neurological Score 4 Days [3, 10]: 1.56 ± 0.18
- Neurological Score 7 Days ([3]; rat 2-h MCAO, 3 mg/kg i.v. 4 h, score 0-3, mean ± SE, n=9, day 7, 3 mg/kg): 1.44±0.18
- infarct volume ([4]; rat 2-h MCAO, day 7): 33.8±4.2
- Lesion Volume % of Hemisphere (percent hemispheric infarct volume) ([4]; rat 2-h MCAO, day 7): 33.8±4.2 % of Hemisphere
